ChEMBL document CHEMBL1134421, “Anticancer properties for 4,4'-dihydroxybenzophenone-2,4-dinitrophenylhydrazone (A-007)/3,7-diaminophenothiazin-5-ium double salts” (Bioorg Med Chem Lett, 2001)
≈ marks a conversion by molar mass, not a printed value.

How the values were obtained:
[1] = organism: Rattus norvegicus; assay: Tested for diffusion of compound into rat skin receptor fluid, at a dose of 0.05 mg; assay type: functional
[2] = system: Ovarian cancer cell line; assay: Tested for anticancer activity against human ovarian cancer; assay type: functional, cell-based
[3] = system: Breast cancer cell line; assay: Tested for anticancer activity against human breast cancer; assay type: functional, cell-based
[4] = organism: Homo sapiens; assay: Tested against normal human peripheral blood dendritic cells, expressed as IC50; assay type: functional, cell-based
[5] = Tested for anticancer activity against human lung cancer (NSCLC); assay type: functional
[6] = system: Melanoma cell; assay: Tested for anticancer activity against human melanoma; assay type: functional, cell-based
[7] = Homo sapiens, Melanoma cell, read-out: IC50

## CN(C)c1ccc2nc3ccc(N(C)C)cc3[s+]c2c1.O=[N+]([O-])c1ccc(NN=C(c2ccc(O)cc2)c2ccc(O)cc2)c([N+](=O)[O-])c1.[Cl-]
[1]
  Activity: 9 ng/mL
[2]
  IC50: 2 µg/mL
[3]
  IC50: 2.5 µg/mL
[4]
  IC50: > 10 µg/mL
[5]
  IC50: 2 µg/mL
[6]; melanoma cell
  IC50: 1 µg/mL

## Cc1cc2nc3ccc(N(C)C)cc3[s+]c2cc1N.O=[N+]([O-])c1ccc(NN=C(c2ccc(O)cc2)c2ccc(O)cc2)c([N+](=O)[O-])c1.[Cl-]
[3]
  IC50: 1.5 µg/mL
[5]
  IC50: 3 µg/mL
[6]; [7]
  IC50: 4 µg/mL

## Nc1ccc2nc3ccc(N)cc3[s+]c2c1.O=[N+]([O-])c1ccc(NN=C(c2ccc(O)cc2)c2ccc(O)cc2)c([N+](=O)[O-])c1.[Cl-]
[2]
  IC50: 0.2 µg/mL
[3]
  IC50: 0.9 µg/mL
[5]
  IC50: > 10 µg/mL

## COc1cccc2c1C(=O)c1c(O)c3c(c(O)c1C2=O)C[C@@](O)(C(=O)CO)C[C@@H]3O[C@H]1C[C@H](N)[C@H](O)[C@H](C)O1 [DOXORUBICIN]
[3]
  IC50: 0.9 µg/mL (≈ 1.66 µM)
[5]
  IC50: > 30 µg/mL
[6]; [7]
  IC50: > 5 µg/mL

## O=[N+]([O-])c1ccc(NN=C(c2ccc(O)cc2)c2ccc(O)cc2)c([N+](=O)[O-])c1 [SIVIFENE]
[2]
  IC50: 9 µg/mL (≈ 22.8 µM)
[3]
  IC50: > 10 µg/mL
[4]
  IC50: > 10 µg/mL
[5]
  IC50: 4 µg/mL (≈ 10.1 µM)
[6]; [7]
  IC50: > 10 µg/mL
